# Experimental data: patent US20260091136A1, “USING ENHO GENE THERAPY TO TREAT CARDIOMETABOLIC DISEASE” (University of Pittsburgh-of the Commonwealth System of …, priority 2023, published 2026)
# Entries after “also recorded” stand apart in the source; their conditions may differ.
# Legend:
# HFpEF mice = assay: Glucose tolerance testing (IPGTT) in HFpEF mice (Example 1); assay type: in vivo; settings: for glucose tolerance: HFpEF mice, four weeks of Adropin treatment
# Method: Administration of Recombinant Adropin. Mice received low-fat chow or HFpEF diet for 10 weeks. For the following 4 weeks, the mice were maintained on respective diets and received daily injections of recombinant Adropin. Body weight was measured every day during the four weeks of treatment.
# Glucose tolerance testing. Glucose tolerance was tested (IPGTT), following a 2 g/kg bolus of glucose. Blood was collected at 15 mins, 30 mins, 45 mins, 60 mins, 90 mins, and 120 mins, and measured using a standard glucometer (Bayer Next EZ). Time-courses for blood glucose uptake will be generated and analyzed for significance using standard statistical tests.
# [1] = In vivo stability of recombinant Adropin (clearance from circulation); settings: within 1 hour
# [2] = test system: hexosamine biosynthesis pathway (HBP); assay: Metabolomics of hearts, HFpEF vs HFpEF+Adropin; assay type: in vivo, C57BL/6J mice; settings: heart; for cardiac hexose and pyruvate levels: Adropin-treated HFpEF mice; for hexosamine biosynthesis pathway (metabolites related to UDP-GlcNAc biosynthesis), untargeted BioCyc pathway analysis: vehicle-treated vs adropin-treated HFpEF groups
# From the text: (§1) Animal Care and Use. Male C57BL/6J 8-week-old mice were obtained from the Jackson Laboratory and maintained on chow for 4 weeks to acclimate to their new environment. Animals were housed in the University of Pittsburgh animal facility under standard conditions with ad libitum access to water and food and maintained on a constant 12-hour light/dark cycle. At 12 weeks of age, the mice were exposed to normal chow (Chow; 60% carbohydrate, 26% protein, 14% fat), or a combination of high-fat diet (HFD; 20% carbohydrate, 20% protein, 60% fat) plus No-nitro-L-arginine methyl ester (L-NAME: 0.5 g/L) supplemented in their drinking water after adjusting the pH to 7.4 with 1N NaOH to induce HFpEF [10]. For cohort 1, the mice were subject to the HFpEF diet for 15 weeks. For cohort 2, after 8 weeks of diet, mice were randomly assigned to a control or treatment group receiving daily intraperitoneal injections of either vehicle or recombinant adropin at 450 nmol/kg animal weight prepared in PBS with 0.1% BSA for the remaining 5 weeks of the study. L-NAME supplemented drinking water was changed weekly and adropin was made fresh and sterile filtered before each use.
# Quantitative Metabolomics. Metabolic quenching and polar metabolite pool extraction was performed by adding ice cold 80% methanol (aqueous) at a ratio of 1:15 wt input tissue:vol. (13 C1)-creatinine, (D3)-taurine, (D3)-lactate and (D3)-alanine were added to the sample lysates as an internal standard for a final concentration of […]. Samples are homogenized using an MP Bio FastPrep system using Matrix D (ceramic sphere) for 60 seconds at 60 hz. The supernatant was then cleared of protein by centrifugation at 16,000 g. 2 μL of cleared supernatant was subjected to online LC-MS analysis. Analyses were performed by untargeted liquid chromatography-high-resolution mass spectrometry (LC-HRMS). Briefly, samples were injected via a Thermo Vanquish UHPLC and separated over a reversed phase. Thermo HyperCarb porous graphite column (2.1×100 mm, […]) maintained at 55° C. For the 20 min LC gradient, the mobile phase consisted of the following: solvent A (water/0.1% FA) and solvent B (ACN/0.1% FA). The gradient was the following: 0-1 min 1% B, increase to 15% B over 5 min, continue increasing to 98% B over 5 min, hold at 98% B for five min, re-equillibrate at 1% B for five min. The Thermo IDX tribrid mass spectrometer was operated in both positive and negative ion mode, scanning in ddMS2 mode (2 scans) from 70 to 800 m/z at 120,000 resolution with an AGC target of 2e5 for full scan, 2e4 for ms2 scans using HCD fragmentation at stepped 15, 35, 50 collision energies. Source ionization setting was 3.0 and 2.4 kV spray voltage, respectively, for positive and negative mode. Source gas parameters were 35 sheath gas, 12 auxiliary gas at 320° C., and 8 sweep gas. Calibration was performed prior to analysis using the Pierce™ FlexMix Ion Calibration Solutions. Integrated peak areas were then extracted manually using Quan Browser (Thermo Fisher Xcalibur ver. 2.7). Untargeted differential comparisons were performed using Compound Discoverer 3.0 to generate a ranked list of significant compounds with tentative identifications from BioCyc, KEGG, and internal compound databases. Purified standards were then purchased and compared in retention time, m/z, along with ms2 fragmentation patterns to validate the identity of significant hits.
# [3] = test system: hexosamine biosynthesis pathway (HBP); assay: Immunoblotting of cardiac proteins (O-GlcNAc, GFAT, OGT, OGA, CD36, PDK4, PLIN5); assay type: in vivo, C57BL/6J mice; settings: heart; for CD36 abundance: to levels observed in chow mice; for total cardiac protein O-GlcNAcylation: to levels observed in chow mice (P=0.06 in b192)
# From the text: as §1
# Protein Isolation and Immunoblotting. Heart tissues were rapidly harvested following euthanasia, weighed, RV discarded and LV flash-frozen in liquid nitrogen. For protein isolation, tissues were minced and lysed in CHAPS buffer (1% CHAPS, 150 mM NaCl, 10 mM HEPES, pH 7.4) using a VWR 4-Place Mini Bead Mill, then incubated on ice for ˜2.5 h. Homogenates were spun at 10,000 g at 4° C. for 10 min, and the supernatants collected for immunoblotting. For immunoblotting, protein lysates were quantitated using a BioDrop LITE Analyzer, prepared in LDS sample buffer, separated using Bolt SDS-PAGE 4-12% or 12% Bis-Tris Plus gels, and transferred to nitrocellulose membranes. Membranes were blocked using SuperBlock (PBS) Blocking Buffer and incubated overnight in the following primary antibodies: rabbit PDK4 (PA5-13776); mouse 0-GlcNAc (9875), rabbit GFAT (D12F4), rabbit OGT (D1D8Q), rabbit OGA (E9C5U), rabbit GAPDH (2118S); rabbit CD36 (18836-1-AP), rabbit CPT1b (22170-1-AP), rabbit LCAD (17526-1-AP), and GCN5L1 as previously reported (Scott et al., 2012). Protein loading was confirmed using GAPDH as a loading control. Fluorescent […] or anti-rabbit secondary antibodies (red, 700 nm; green, 800 nm) were used to detect expression levels. Images were obtained using Licor Odyssey CLx System and protein densitometry was measured using the LiCor Image Studio Lite Ver. 5.2 Software.
# GPR19 = settings: previous work from our group; cited from earlier work
# [4] = IPGTT AUC analysis, p-value <0.05
# [5] = Adropin-treated HFpEF mice, listed as adropin
substance,measurement,setting,value
Adropin: recombinant Adropin peptide hormone encoded by the ENHO gene; full-length (SEQ ID NO: 1) or cleaved product of amino acids 34-76 (SEQ ID NO: 2) (CHSRSADVDSLSESSPNSSPGPCPEKAPPPQKPSHEGSYLLQP),"average blood glucose, IPGTT","HFpEF mice; HFpEF mice that received Adropin, by the 120 minute timepoint",gradually decreased to match control chow mice
same,glucose tolerance,HFpEF mice,increase
same,glucose tolerance,HFpEF mice; listed as Recombinant Adropin,significant increase
same,blood glucose AUC of HFpEF mice that received Adropin relative to control chow mice,HFpEF mice; [4],significantly greater
same,blood glucose AUC of HFpEF mice without Adropin relative to HFpEF mice that received Adropin,HFpEF mice; [4],significantly greater
same,peptide cleared from circulation,[1],96%
same,cardiac hexose and pyruvate levels,[2],trend towards decreased
same,cardiac hexose and pyruvate levels,[2]; listed as adropin,trend towards restored
same,"abundance of metabolites used to generate UDP-GlcNAc (GlcNAc-6-P, uridine, coenzyme A)",[2]; relative to HFpEF mice,significant increase
same,"hexosamine biosynthesis pathway (metabolites related to UDP-GlcNAc biosynthesis), untargeted BioCyc pathway analysis",[2],major metabolomic differences; also recorded: modulated
same,"hexosamine biosynthesis pathway (metabolites related to UDP-GlcNAc biosynthesis), untargeted BioCyc pathway analysis",[2]; listed as adropin,major metabolomic difference; also recorded: inhibits
same,PDK4 enzyme expression,[3],no observed changes
same,inhibition of cardiac protein O-GlcNAcylation by mediating expression of OGT and OGA,[3],did not inhibit
same,GFAT expression,[3]; Adropin-treated HFpEF mice,did not reduce
same,CD36 abundance,[3]; Adropin-treated HFpEF mice,restored
same,total cardiac protein O-GlcNAcylation,[3]; Adropin-treated HFpEF mice,restored; also recorded: decrease
same,total cardiac protein O-GlcNAcylation,[3]; [5],restored
same,CD36 abundance,[3]; [5],restored; also recorded: significantly attenuated
same,PLIN5 expression (aberrant fatty acid utilization),[3]; increased in HFpEF vs chow,corrected
same,Adropin function in cardiac cells,GPR19,dependent on GPR19
